Results on two compounds are retold here after patent US20060234987A1, “Neuroprotective benzo 1 3 oxathiol 2 ones” (priority 2003, published 2006).

The target of one experiment is T1, SHP2 (Homo sapiens, UniProt Q06124).
T1 construct: made in house; host or cells: adenovirus vector
T1 sequence (Q06124 1-593): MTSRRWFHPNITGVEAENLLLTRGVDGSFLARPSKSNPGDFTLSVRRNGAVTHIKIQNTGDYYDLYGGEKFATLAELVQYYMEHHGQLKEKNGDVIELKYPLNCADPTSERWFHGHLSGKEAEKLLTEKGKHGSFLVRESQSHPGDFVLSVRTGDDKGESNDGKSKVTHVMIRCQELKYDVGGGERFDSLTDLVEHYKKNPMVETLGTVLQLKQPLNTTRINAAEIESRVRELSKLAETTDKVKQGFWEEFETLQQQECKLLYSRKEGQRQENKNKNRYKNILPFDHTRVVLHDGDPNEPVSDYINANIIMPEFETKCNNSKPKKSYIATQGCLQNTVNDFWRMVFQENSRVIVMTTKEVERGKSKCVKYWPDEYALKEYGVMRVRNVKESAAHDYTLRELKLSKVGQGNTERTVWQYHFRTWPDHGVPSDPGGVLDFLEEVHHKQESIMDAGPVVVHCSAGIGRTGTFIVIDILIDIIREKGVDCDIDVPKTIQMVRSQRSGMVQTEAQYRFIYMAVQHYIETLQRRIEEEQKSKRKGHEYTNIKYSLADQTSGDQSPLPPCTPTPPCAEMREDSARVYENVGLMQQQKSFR
Nature of the experiment: Phosphatase profile: SHP2 inhibition (DIFMUP fluorescence). Format: biochemical. Particulars: Table 6. As to the method:
(§1) A) SHP1 and SHP2: SHP1 and SHP2 adenovirus vectors were prepared. SHP1 and SHP2 were independently over expressed, isolated and purified using FPLC. Enzyme was diluted to 1000-1400 FU/min. Enzyme (45 μL) was uniformLy plated in 96 well plates and treated with serial dilutions of compound (2 μL in DMSO). Compound and enzyme are allowed to incubate for 30 minutes at RT before the addition of DIFMUP (100 μM). The solutions are allowed to incubate at RT for 10 minutes prior to reading the fluorescence, to provide IC50 curves using LSW Data Analysis Tool Box (MDL).

For a further experiment, the target named is T2, SHP1 (Homo sapiens, UniProt P29350).
T2 construct: made in house; host or cells: adenovirus vector
T2 sequence (P29350 whole entry): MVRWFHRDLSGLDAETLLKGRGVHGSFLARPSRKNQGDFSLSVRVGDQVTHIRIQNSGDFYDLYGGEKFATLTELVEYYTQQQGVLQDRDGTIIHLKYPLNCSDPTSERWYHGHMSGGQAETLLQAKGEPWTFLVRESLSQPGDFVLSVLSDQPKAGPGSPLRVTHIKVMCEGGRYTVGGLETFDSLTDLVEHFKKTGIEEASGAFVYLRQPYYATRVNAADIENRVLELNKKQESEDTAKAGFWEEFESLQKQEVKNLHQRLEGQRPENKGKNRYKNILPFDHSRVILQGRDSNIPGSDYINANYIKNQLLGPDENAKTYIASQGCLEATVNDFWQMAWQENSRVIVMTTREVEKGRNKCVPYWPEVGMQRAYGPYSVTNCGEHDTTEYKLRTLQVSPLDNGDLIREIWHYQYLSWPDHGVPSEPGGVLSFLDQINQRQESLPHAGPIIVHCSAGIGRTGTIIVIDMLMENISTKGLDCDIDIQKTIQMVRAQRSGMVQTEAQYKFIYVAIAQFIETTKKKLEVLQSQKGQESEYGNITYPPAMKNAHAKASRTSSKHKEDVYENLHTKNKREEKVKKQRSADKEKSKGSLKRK
Nature of the experiment: Phosphatase profile: SHP1 inhibition (DIFMUP fluorescence). In kind it is biochemical. As to the method: as §1

A further experiment deals with T3, LAR (Homo sapiens, UniProt P10586).
T3 construct: purchased BIOMOL Research Laboratories, Inc
T3 sequence (P10586 30-1907, species assumed): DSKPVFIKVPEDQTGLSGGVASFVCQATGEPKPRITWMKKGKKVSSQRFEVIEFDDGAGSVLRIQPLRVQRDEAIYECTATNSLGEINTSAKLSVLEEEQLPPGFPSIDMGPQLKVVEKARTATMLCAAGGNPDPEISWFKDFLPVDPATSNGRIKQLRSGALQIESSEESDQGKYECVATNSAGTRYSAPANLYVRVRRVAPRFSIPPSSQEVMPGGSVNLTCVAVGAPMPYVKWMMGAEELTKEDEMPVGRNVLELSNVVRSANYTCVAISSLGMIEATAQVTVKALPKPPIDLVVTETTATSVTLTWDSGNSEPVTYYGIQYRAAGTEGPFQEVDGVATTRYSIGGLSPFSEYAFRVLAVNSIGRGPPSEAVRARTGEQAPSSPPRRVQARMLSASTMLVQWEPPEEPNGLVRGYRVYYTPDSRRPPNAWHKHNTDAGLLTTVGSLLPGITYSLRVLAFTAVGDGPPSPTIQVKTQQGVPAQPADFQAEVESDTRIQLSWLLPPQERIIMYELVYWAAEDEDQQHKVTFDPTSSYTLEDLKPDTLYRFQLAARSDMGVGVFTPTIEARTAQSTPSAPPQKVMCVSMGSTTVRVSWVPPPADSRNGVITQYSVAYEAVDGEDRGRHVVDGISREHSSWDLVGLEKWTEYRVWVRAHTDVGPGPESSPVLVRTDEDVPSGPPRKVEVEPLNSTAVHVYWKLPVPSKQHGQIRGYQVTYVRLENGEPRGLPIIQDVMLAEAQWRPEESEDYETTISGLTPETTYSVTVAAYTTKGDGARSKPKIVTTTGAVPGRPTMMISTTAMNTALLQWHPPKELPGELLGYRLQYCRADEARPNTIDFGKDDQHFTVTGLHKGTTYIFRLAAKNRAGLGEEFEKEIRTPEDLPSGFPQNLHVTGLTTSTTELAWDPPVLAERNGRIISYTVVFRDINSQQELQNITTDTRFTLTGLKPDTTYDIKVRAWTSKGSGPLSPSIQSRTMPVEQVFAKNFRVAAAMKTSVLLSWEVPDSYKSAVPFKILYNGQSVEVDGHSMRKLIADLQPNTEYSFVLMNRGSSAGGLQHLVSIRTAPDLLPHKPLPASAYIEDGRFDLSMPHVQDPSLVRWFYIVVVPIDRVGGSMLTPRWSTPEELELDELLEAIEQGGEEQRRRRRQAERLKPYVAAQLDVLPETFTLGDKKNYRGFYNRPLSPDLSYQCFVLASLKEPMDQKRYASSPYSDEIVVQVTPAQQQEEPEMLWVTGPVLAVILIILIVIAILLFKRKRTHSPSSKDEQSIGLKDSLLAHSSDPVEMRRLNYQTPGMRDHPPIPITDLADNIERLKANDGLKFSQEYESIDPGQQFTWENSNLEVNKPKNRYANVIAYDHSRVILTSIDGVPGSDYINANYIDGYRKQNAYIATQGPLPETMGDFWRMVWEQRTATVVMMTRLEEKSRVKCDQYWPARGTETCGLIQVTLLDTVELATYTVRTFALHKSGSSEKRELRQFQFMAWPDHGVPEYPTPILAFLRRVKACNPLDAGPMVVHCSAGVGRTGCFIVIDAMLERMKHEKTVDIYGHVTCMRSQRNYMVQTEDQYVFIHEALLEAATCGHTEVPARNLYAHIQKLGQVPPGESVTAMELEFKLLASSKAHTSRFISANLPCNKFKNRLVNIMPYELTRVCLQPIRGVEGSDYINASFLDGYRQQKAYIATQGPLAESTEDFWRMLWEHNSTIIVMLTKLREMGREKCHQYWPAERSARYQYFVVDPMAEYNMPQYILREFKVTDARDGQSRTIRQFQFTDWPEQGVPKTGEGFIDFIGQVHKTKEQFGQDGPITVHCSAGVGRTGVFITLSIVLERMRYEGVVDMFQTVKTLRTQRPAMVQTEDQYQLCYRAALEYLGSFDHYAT
Nature of the experiment: LAR Assay. Format: biochemical. The note with it: Table 6. Here is the method:
C) LAR Assay: Inhibition of the phosphatase LAR was performed according to reported procedures (Cho, H. Biochemistry 1991, 30, 6210; 1992, 31, 133; Cho, H. Prot. Sci., 1993, 2, 977). LAR was purchased from BIOMOL Research Laboratories, Inc.

In the next experiment the target is T4, PTP-1B (Homo sapiens, UniProt P18031).
T4 construct: purchased BIOMOL Research Laboratories, Inc
T4 sequence (P18031 1-435): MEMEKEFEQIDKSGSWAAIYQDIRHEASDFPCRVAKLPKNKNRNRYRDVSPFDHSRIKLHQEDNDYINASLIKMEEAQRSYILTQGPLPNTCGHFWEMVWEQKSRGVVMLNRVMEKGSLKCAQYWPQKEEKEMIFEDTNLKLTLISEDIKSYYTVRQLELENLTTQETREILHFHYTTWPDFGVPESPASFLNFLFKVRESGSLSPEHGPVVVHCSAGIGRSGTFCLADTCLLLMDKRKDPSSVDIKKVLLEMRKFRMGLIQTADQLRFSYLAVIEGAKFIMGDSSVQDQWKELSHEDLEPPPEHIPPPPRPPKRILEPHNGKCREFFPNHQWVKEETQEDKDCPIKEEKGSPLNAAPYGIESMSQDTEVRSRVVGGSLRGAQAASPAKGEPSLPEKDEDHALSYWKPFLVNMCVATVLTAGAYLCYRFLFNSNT
Kind of experiment: PTP-1B Assay. Format: biochemical. The note with it: Table 6. Here is the method:
B) PTP-1B Assay: Inhibition of the phosphatase PTP1B was performed according to reported procedures (Puius, Y. A. et a. Proc. Natl. Acad. Sci., 1997, 94, 13420; Liu, F. J. Biol. Chem., 1996, 271, 31290). PTP1B was purchased from BIOMOL Research Laboratories, Inc.

The subject of another experiment is PP1. Nature of the experiment: PP1 Assay. The note with it: Table 6. In kind it is biochemical. As to the method:
E) PP1 Assay: Inhibition of the phosphatase PP1 was performed according to reported procedures (Nat. Biotechnol., 2000, 18, 847).

The subject of the next experiment is SCG neurons. Kind of experiment: Protection of SCG neurons from anti-NGF killing. Format: cell-based, Sprague Dawley rats. The note with it: Rattus norvegicus, Neuron; anti-NGF antibody, 48 hours, Alamar Blue viability; read-out: IC50, rescue from anti-NGF killing of cultured SCG neurons. As to the method: Neurotrophins are critical to the growth, development, and survival of small fiber neurons of the PNS. SCG neurons are neurons of the PNS that undergo apoptosis upon NGF withdrawal. In a typical experiment SCG neurons are cultured in the presence of NGF, which induces survival and neurite out-growth. After 5 days the NGF is removed by either the addition of anti-NGF polyclonal antibody (Sigma) or by repeated washings (4 times) with NGF free media, resulting in the apoptosis of up to 90% of the neurons after 48 hours, as measured by MTS staining. The addition of selected compounds of Formula I to the final cellular media provides upwards of 100% protection, at drug concentrations ranging from 10 to 50 μM (see Example 62).
Protection of SCG neurons from anti-NGF killing. SCG neurons were isolated from day 1 neonatal Sprague Dawley rats, plated at a cell density of 5,000 cells/well, and incubated in Biowhittaker Ultraculture containing 1% Penstrep, 1% L-glutamine, 0.7% ARAC, 3% rat serum, and NGF (50 ng/mL, Calomone Labs), at 37° C., under a 5% CO2 atmosphere. After 4 days the cells were treated with anti-NGF antibody (Sigma). At this time compound was added and the cells were maintained serum and NGF free for 48 hours, at which time viability of the neurons was assessed using Alamar Blue (Medicorp) staining. Table 3 summarizes selected IC50 values from compounds tested using this protocol.
(Alamar Blue is a resazurin reagent that responds to reducing activity.)

pIC50: −log10 of the molar value. Like-named read-outs stand apart in the source and are kept apart here. Where only a bound is given, the exact number is not on record here.

`O=c1oc2c(Sc3ccc4ccccc4c3)cc(O)cc2s1` [Compound 23, 5-Hydroxy-7-((2-naphthy)sulfanyl)benzo[1,3]oxathiol-2-one]: the negative-log IC50 (pIC50) (usually −log10 of the IC50, conventionally taken in molar units) against SHP2 is 4.78; at SHP1 (FIG. 1 legend, read-out: SHP1 IC50 (FIG. 1 inhibition curve)), 4.97; on SHP1 (Table 6, read-out: SHP1 IC50) it was 4.96; at LAR, under 4.00; in the experiment with SCG neurons, 4.60. The “PTP-1B IC50” value on PTP-1B is “no inh”. Also, the “PP1 IC50” value in the experiment with PP1 is given as “no inh”.

As to `O=c1oc2c(Sc3ccc4ccccc4c3)cc(O)c(Sc3ccc4ccccc4c3)c2s1` [Compound 30, 4,7-Bis-((2-naphthyl)sulfanyl)-5-hydroxybenzo[1,3]oxathiol-2-one], the negative-log IC50 (pIC50) on SHP2 is 4.74; at SHP1 (Table 6, read-out: SHP1 IC50) it was 5.27; in the experiment with SCG neurons, under 4.52. Further, the “LAR IC50” value on LAR is on record as “no inh”. Further, the “PTP-1B IC50” value at PTP-1B is “no inh”. Also, the “PP1 IC50” value with PP1 is “no inh”.
